According to patent US6630177B1, “Products extracted from a plant of the genus Commiphora, particularly the Commiphora mukul plant, extracts containing same and applications thereof, for example in cosmetics” (Parfums Christian Dior, priority 1995, dated 2003):
“Also recorded” adds a separate entry of the source.

Tests used:
3T3 F442A = assay: Determination of the glycero-3-phosphate dehydrogenase (G3PDH) activity in treated fibroblast (preadipocyte) cultures; type: cell-based, murine; settings: for Rate of conversion of NADH: 3T3 F442A cultures treated at 5 μg/ml on D+5, D+7, D+9, G3PDH assayed on D+12, mean of three experiments; for Activity A1 (stimulation of G3PDH activity versus control cultures): 3T3 F442A cultures, calculated from Vp and Vt
Source text: The cells used are 3T3 F442A, which constitute a line of murine preadipocytes selected for their ability to convert to adipocytes if the culture conditions allow, in accordance with the method of Green, H. & Kehinde, C., Cell 1 (1974) 113.
The aim was to measure the expression of two differentiation markers, namely glycero-3-phosphate dehydrogenase (G3PDH) on the one hand and cyclic AMP (cAMP) on the other.
It is pointed out here that the enzyme G3PDH allows the formation, in the fibroblast, of glycerol 3-phosphate, a molecule which is subsequently involved in the synthesis of the intracellular lipids (triglycerides). Thus an increase in the activity of the G3PDH is directly linked to an increase in this synthesis.
The fibroblasts are inoculated at the bottom of Petri dishes of diameter 35 mm in Dulbecco's Modified Eagle's Medium (DMEM), in the presence of 5% of calf serum (CS) and 5% of fetal calf serum (FCS). Each experiment is performed in triplicate.
During the treatment phase, the medium consists of DMEM+10% of fetal calf serum.
The product or extract according to the invention is dissolved in ethanol and used on the cultures at a final concentration of 5 μg/ml.
On day D+5: treatment with resin of Commiphora mukul (extract G), FIIB1 or IIa or IIb at 5 μg/ml in DMEM, 10% FCS
On days D+7 and D+9: treatment identical to that performed on D+5
On day D+12: grinding of the cells for assay of G3PDH.
The cellular monolayer is recovered by scraping and vigorously homogenized in TRIS-HCl buffer (25 mM, pH 7.4), 1 mM EDTA, at 4° C. The G3PDH activity is determined on the supernatant of the ground cellular material immediately after centrifugation.
It is possible to calculate an absorption difference (ΔAbs)/min, which corresponds to the initial rate of the enzymatic reaction.
The results are expressed in terms of specific activity, i.e. in nmol of NADH converted/min/mg of cellular proteins (the total cellular protein content is evaluated by the method of BCA—PIERCE: protein assay reagent).
The activity Al of the products according to the invention on stimulation of the activity of this enzyme is calculated according to the following formula: [formula]
Vp is the mean value, over the three experiments, of the rate of conversion of NADH, expressed in nmol/min/mg of cellular proteins, in the cultures treated with the products according to the invention,
Vt is the mean value of this rate in the control cultures.

fibroblasts in culture = assay: Lipogenic activity of the fractions on fibroblasts in culture; type: cell-based; settings: result in words
Experimental: In a first step, the extract G is subjected to a series of fractionations by high performance liquid chromatography. Each fraction is tested for its lipogenic activity on fibroblasts in culture using the method explained below. These different fractionations ultimately yield an active fraction, FIIB, whose characteristic peaks are identified on the chromatogram.

Compound	Rate of conversion of NADH (3T3 F442A)	Activity A1 (stimulation of G3PDH activity versus control cultures) (3T3 F442A; 5 μg/ml) [%]	Increase of the activity of the enzyme G3PDH compared with control cultures (3T3 F442A; fibroblast cultures, 5 μg/ml) [fold]	Lipogenic activity (fibroblasts in culture)
C/C(=C\CC/C(C)=C/CC[C@@H]1[C@@]2(C)CCC(=O)C(C)(C)[C@@H]2CC[C@@]1(C)O)CC/C=C(\C)C(=O)O [IIb, (5R,10S,8R,9R)-8-hydroxy-3-oxopolypoda-13E,17E,21 E-trien-30-oic acid]	352 ± 62 nmol/min/mg of proteins	610	7	give the best results; also recorded: substantially equivalent
C/C(=C\CC/C(C)=C/CC/C(C)=C/CC[C@@H]1[C@@]2(C)CCC(=O)C(C)(C)[C@@H]2CC[C@@]1(C)O)CO [IIa, (5R, 10S,8R,9R)-3-oxopolypoda-13E,17E,21E-triene-8,30-diol]	222 ± 88 nmol/min/mg of proteins	348	–	give the best results; also recorded: substantially equivalent
